# Legend:
# Test in all cases: relative viability (nuclei count vs DMSO), 5 days (fraction); higher = more cells survive
# [1] = test system: COR-L 105
# Procedure, shortened: (§1)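 Dosing by pin tool came one day after lung cancer cell lines were seeded in 1536-well plates, using either one drug or a fixed anchor-drug dose plus five library-drug doses (not always all listed) in √10 steps. After 5 days, nuclei were counted on 4× images. Relative viability is treated-well nuclei count divided by vehicle-well nuclei count, and values are medians of duplicate plates.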
# [2] = test system: LCLC-103H
# Procedure, shortened: as §1
# [3] = test system: LK-2
# Procedure, shortened: as §1
# [4] = test system: NCI-H1355
# Procedure, shortened: as §1
# [5] = test system: NCI-H1648
# Procedure, shortened: as §1
# [6] = test system: NCI-H1666
# Procedure, shortened: as §1
# [7] = test system: NCI-H520
# Procedure, shortened: as §1
# [8] = test system: NCI-H522
# Procedure, shortened: as §1
# [9] = test system: A549
# Procedure, shortened: as §1
smiles,measurement,setting,value
Cc1sc2c(c1C)C(c1ccc(Cl)cc1)=N[C@@H](CC(=O)OC(C)(C)C)c1nnc(C)n1-2 [JQ1] + CC(=O)c1c(C)c2cnc(Nc3ccc(N4CCNCC4)cn3)nc2n(C2CCCC2)c1=O [Palbociclib] (partner 0.5 µM),relative viability,[1]; first compound 0.04 µM,0.384
same,relative viability,[1]; first compound 0.1265 µM,0.429
same,relative viability,[1]; first compound 0.4 µM,0.358
same,relative viability,[1]; first compound 1.265 µM,0.311
same,relative viability,[1]; first compound 4 µM,0.34
same,relative viability,[2]; first compound 0.04 µM,0.46
same,relative viability,[2]; first compound 0.1265 µM,0.438
same,relative viability,[2]; first compound 0.4 µM,0.42
same,relative viability,[2]; first compound 1.265 µM,0.419
same,relative viability,[2]; first compound 4 µM,0.328
same,relative viability,[3]; first compound 0.04 µM,0.718
same,relative viability,[3]; first compound 0.1265 µM,0.702
same,relative viability,[3]; first compound 0.4 µM,0.339
same,relative viability,[3]; first compound 1.265 µM,0.151
same,relative viability,[3]; first compound 4 µM,0.151
same,relative viability,[4]; first compound 0.04 µM,0.375
same,relative viability,[4]; first compound 0.1265 µM,0.372
same,relative viability,[4]; first compound 0.4 µM,0.323
same,relative viability,[4]; first compound 1.265 µM,0.276
same,relative viability,[4]; first compound 4 µM,0.233
same,relative viability,[5]; first compound 0.04 µM,0.259
same,relative viability,[5]; first compound 0.1265 µM,0.303
same,relative viability,[5]; first compound 0.4 µM,0.332
same,relative viability,[5]; first compound 1.265 µM,0.358
same,relative viability,[5]; first compound 4 µM,0.309
same,relative viability,[6]; first compound 0.04 µM,0.646
same,relative viability,[6]; first compound 0.1265 µM,0.576
same,relative viability,[6]; first compound 0.4 µM,0.591
same,relative viability,[6]; first compound 1.265 µM,0.647
same,relative viability,[6]; first compound 4 µM,0.568
same,relative viability,[7]; first compound 0.04 µM,0.197
same,relative viability,[7]; first compound 0.1265 µM,0.196
same,relative viability,[7]; first compound 0.4 µM,0.184
same,relative viability,[7]; first compound 1.265 µM,0.154
same,relative viability,[7]; first compound 4 µM,0.143
same,relative viability,[8]; first compound 0.04 µM,1.04
same,relative viability,[8]; first compound 0.1265 µM,0.881
same,relative viability,[8]; first compound 0.4 µM,0.697
same,relative viability,[8]; first compound 1.265 µM,0.478
same,relative viability,[8]; first compound 4 µM,0.39
CC(=O)O[C@@]12CO[C@@H]1C[C@H](O)[C@@]1(C)C(=O)[C@H](O)C3=C(C)[C@@H](OC(=O)[C@H](O)[C@@H](NC(=O)OC(C)(C)C)c4ccccc4)C[C@@](O)([C@@H](OC(=O)c4ccccc4)[C@H]21)C3(C)C [Docetaxel] + CC(=O)c1c(C)c2cnc(Nc3ccc(N4CCNCC4)cn3)nc2n(C2CCCC2)c1=O [Palbociclib] (partner 0.5 µM),relative viability,[1]; first compound 0.0002 µM,0.393
same,relative viability,[1]; first compound 0.000632 µM,0.403
same,relative viability,[1]; first compound 0.002 µM,0.368
same,relative viability,[1]; first compound 0.006325 µM,0.353
same,relative viability,[1]; first compound 0.02 µM,0.338
same,relative viability,[2]; first compound 0.0002 µM,0.496
same,relative viability,[2]; first compound 0.000632 µM,0.532
same,relative viability,[2]; first compound 0.002 µM,0.5
same,relative viability,[2]; first compound 0.006325 µM,0.598
same,relative viability,[2]; first compound 0.02 µM,0.57
same,relative viability,[3]; first compound 0.0002 µM,0.507
same,relative viability,[3]; first compound 0.000632 µM,0.411
same,relative viability,[3]; first compound 0.002 µM,0.18
same,relative viability,[3]; first compound 0.006325 µM,0.108
same,relative viability,[3]; first compound 0.02 µM,0.0873
same,relative viability,[4]; first compound 0.0002 µM,0.374
same,relative viability,[4]; first compound 0.000632 µM,0.402
same,relative viability,[4]; first compound 0.002 µM,0.29
same,relative viability,[4]; first compound 0.02 µM,0.176
same,relative viability,[5]; first compound 0.0002 µM,0.265
same,relative viability,[5]; first compound 0.000632 µM,0.26
same,relative viability,[5]; first compound 0.002 µM,0.271
same,relative viability,[5]; first compound 0.006325 µM,0.249
same,relative viability,[5]; first compound 0.02 µM,0.247
same,relative viability,[6]; first compound 0.0002 µM,0.628
same,relative viability,[6]; first compound 0.000632 µM,0.666
same,relative viability,[6]; first compound 0.002 µM,0.795
same,relative viability,[6]; first compound 0.006325 µM,0.712
same,relative viability,[6]; first compound 0.02 µM,0.581
same,relative viability,[7]; first compound 0.0002 µM,0.192
same,relative viability,[7]; first compound 0.000632 µM,0.253
same,relative viability,[7]; first compound 0.002 µM,0.209
same,relative viability,[7]; first compound 0.006325 µM,0.189
same,relative viability,[7]; first compound 0.02 µM,0.122
same,relative viability,[8]; first compound 0.0002 µM,1.11
same,relative viability,[8]; first compound 0.000632 µM,0.795
same,relative viability,[8]; first compound 0.002 µM,0.758
same,relative viability,[8]; first compound 0.006325 µM,0.565
same,relative viability,[8]; first compound 0.02 µM,0.311
COc1cc2nccc(Oc3ccc(NC(=O)Nc4cc(C)on4)c(Cl)c3)c2cc1OC [Tivozanib] + Nc1ncn([C@H]2C[C@H](O)[C@@H](CO)O2)c(=O)n1 [Decitabine] (partner 2 µM),relative viability,[9]; first compound 0.005 µM,0.207
same,relative viability,[9]; first compound 0.01581 µM,0.225
same,relative viability,[9]; first compound 0.05 µM,0.223
same,relative viability,[9]; first compound 0.1581 µM,0.239
same,relative viability,[9]; first compound 0.5 µM,0.225
same,relative viability,[1]; first compound 0.005 µM,0.677
same,relative viability,[1]; first compound 0.01581 µM,0.638
same,relative viability,[1]; first compound 0.05 µM,0.731
same,relative viability,[1]; first compound 0.1581 µM,0.627
same,relative viability,[1]; first compound 0.5 µM,0.628
same,relative viability,[2]; first compound 0.005 µM,0.615
same,relative viability,[2]; first compound 0.01581 µM,0.708
same,relative viability,[2]; first compound 0.05 µM,0.732
same,relative viability,[2]; first compound 0.1581 µM,0.685
same,relative viability,[2]; first compound 0.5 µM,0.744
same,relative viability,[3]; first compound 0.005 µM,0.275
same,relative viability,[3]; first compound 0.01581 µM,0.322
same,relative viability,[3]; first compound 0.05 µM,0.334
same,relative viability,[3]; first compound 0.1581 µM,0.204
same,relative viability,[3]; first compound 0.5 µM,0.206
same,relative viability,[4]; first compound 0.005 µM,0.318
same,relative viability,[4]; first compound 0.01581 µM,0.314
same,relative viability,[4]; first compound 0.05 µM,0.334
same,relative viability,[4]; first compound 0.1581 µM,0.333
same,relative viability,[4]; first compound 0.5 µM,0.363
same,relative viability,[5]; first compound 0.005 µM,0.467
same,relative viability,[5]; first compound 0.01581 µM,0.434
same,relative viability,[5]; first compound 0.05 µM,0.479
same,relative viability,[5]; first compound 0.1581 µM,0.451
same,relative viability,[5]; first compound 0.5 µM,0.496
same,relative viability,[6]; first compound 0.005 µM,0.664
same,relative viability,[6]; first compound 0.01581 µM,0.683
same,relative viability,[6]; first compound 0.05 µM,0.784
same,relative viability,[6]; first compound 0.1581 µM,0.665
same,relative viability,[6]; first compound 0.5 µM,0.643
same,relative viability,[7]; first compound 0.005 µM,0.442
same,relative viability,[7]; first compound 0.01581 µM,0.448
same,relative viability,[7]; first compound 0.05 µM,0.444
same,relative viability,[7]; first compound 0.1581 µM,0.56
same,relative viability,[7]; first compound 0.5 µM,0.351
same,relative viability,[8]; first compound 0.005 µM,0.702
same,relative viability,[8]; first compound 0.01581 µM,0.68
same,relative viability,[8]; first compound 0.05 µM,0.696
same,relative viability,[8]; first compound 0.1581 µM,0.665
same,relative viability,[8]; first compound 0.5 µM,0.577
